Where two headings read alike, the source gives them in different places.
How the values were obtained:
Assay in all cases: biochemical
Design in all cases: DiscoveRx KINOMEscan active site-directed competition binding; percent of control kinase bound to immobilised ligand
ZAK = target: T1, ZAK (Homo sapiens, UniProt Q9NYL2)
T1 construct: gene MAP3K20

AXL = target: T2, AXL (Homo sapiens, UniProt P30530)
T2 sequence (P30530 1-894): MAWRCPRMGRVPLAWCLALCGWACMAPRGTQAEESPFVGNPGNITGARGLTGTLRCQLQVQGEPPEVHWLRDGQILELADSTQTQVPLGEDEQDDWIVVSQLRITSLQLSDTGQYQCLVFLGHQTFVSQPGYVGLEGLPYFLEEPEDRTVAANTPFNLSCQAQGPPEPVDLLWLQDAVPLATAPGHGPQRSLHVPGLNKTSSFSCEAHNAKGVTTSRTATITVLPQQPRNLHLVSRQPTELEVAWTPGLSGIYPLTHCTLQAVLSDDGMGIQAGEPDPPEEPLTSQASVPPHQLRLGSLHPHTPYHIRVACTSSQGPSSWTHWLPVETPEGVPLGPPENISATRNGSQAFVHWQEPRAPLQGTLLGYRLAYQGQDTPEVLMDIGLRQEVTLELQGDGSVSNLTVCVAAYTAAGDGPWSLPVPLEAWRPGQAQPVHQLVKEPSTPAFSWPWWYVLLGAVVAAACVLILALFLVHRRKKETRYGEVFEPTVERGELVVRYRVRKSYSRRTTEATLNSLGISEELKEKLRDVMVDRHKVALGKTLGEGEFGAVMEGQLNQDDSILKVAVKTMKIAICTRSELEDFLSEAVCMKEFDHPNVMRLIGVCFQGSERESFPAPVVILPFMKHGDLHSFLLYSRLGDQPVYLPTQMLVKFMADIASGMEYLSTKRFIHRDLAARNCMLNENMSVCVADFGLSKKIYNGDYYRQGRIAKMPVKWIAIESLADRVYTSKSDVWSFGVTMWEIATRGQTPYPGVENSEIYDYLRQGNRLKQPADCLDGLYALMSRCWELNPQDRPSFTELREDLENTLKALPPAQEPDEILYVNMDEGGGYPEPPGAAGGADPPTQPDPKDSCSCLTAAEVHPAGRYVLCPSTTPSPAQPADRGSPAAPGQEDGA

PHKG2 = target: T3, PHKG2 (Homo sapiens, UniProt P15735)
T3 sequence (P15735 1-406): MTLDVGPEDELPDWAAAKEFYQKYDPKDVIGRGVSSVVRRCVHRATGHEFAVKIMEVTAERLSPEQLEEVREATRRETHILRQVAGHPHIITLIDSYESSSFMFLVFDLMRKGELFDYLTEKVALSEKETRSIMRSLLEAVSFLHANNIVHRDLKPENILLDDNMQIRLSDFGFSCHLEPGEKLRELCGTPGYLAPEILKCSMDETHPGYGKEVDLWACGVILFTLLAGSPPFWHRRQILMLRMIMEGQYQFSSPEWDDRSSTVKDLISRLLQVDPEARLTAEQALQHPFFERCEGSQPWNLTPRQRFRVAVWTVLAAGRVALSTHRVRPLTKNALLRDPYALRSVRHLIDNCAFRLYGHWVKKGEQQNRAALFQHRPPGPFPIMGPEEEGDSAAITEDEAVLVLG

p38-alpha = target: T4, p38-alpha (Homo sapiens, UniProt Q16539)
T4 construct: gene MAPK14
T4 sequence (Q16539 whole entry): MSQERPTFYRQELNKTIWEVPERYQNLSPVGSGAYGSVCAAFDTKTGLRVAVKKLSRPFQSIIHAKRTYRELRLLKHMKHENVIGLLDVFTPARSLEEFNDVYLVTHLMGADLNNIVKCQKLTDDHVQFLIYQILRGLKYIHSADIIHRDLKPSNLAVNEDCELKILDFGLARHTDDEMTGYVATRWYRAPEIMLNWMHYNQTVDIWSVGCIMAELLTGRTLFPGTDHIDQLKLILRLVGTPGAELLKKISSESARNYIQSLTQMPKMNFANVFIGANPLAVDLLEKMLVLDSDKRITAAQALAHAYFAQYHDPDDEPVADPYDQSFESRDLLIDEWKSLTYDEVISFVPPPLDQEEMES

FLT3 = target: T5, FLT3 (Homo sapiens, UniProt P36888)
T5 sequence (P36888 1-993): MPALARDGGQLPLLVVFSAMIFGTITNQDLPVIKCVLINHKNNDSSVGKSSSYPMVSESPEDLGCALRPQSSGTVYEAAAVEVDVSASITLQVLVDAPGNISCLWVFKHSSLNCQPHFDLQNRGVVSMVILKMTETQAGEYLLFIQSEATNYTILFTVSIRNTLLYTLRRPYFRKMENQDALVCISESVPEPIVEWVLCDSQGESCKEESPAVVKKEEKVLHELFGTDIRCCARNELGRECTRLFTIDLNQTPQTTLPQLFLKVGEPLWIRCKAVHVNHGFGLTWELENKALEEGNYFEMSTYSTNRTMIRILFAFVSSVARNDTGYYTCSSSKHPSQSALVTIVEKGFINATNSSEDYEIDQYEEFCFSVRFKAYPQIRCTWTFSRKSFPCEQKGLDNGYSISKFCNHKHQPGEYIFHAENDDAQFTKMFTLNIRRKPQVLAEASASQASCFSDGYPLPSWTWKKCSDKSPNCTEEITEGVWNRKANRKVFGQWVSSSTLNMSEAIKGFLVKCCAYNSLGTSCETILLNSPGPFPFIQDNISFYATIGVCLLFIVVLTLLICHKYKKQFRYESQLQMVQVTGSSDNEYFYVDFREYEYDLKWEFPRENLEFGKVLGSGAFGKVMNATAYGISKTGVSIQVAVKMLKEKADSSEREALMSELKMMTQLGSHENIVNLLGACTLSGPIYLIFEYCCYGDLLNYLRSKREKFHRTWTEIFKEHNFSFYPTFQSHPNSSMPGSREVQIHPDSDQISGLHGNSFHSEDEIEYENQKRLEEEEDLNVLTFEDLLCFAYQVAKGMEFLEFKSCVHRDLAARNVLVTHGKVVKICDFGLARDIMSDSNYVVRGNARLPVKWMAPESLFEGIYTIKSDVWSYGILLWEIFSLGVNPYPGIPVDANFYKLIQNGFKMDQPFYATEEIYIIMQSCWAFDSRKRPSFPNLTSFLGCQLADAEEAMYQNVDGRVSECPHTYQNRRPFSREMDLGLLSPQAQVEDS

MET(Y1235D) = MET(Y1235D) (Homo sapiens, UniProt P08581, Y1235D)
Sequence of MET(Y1235D) (P08581 whole entry Y1235D): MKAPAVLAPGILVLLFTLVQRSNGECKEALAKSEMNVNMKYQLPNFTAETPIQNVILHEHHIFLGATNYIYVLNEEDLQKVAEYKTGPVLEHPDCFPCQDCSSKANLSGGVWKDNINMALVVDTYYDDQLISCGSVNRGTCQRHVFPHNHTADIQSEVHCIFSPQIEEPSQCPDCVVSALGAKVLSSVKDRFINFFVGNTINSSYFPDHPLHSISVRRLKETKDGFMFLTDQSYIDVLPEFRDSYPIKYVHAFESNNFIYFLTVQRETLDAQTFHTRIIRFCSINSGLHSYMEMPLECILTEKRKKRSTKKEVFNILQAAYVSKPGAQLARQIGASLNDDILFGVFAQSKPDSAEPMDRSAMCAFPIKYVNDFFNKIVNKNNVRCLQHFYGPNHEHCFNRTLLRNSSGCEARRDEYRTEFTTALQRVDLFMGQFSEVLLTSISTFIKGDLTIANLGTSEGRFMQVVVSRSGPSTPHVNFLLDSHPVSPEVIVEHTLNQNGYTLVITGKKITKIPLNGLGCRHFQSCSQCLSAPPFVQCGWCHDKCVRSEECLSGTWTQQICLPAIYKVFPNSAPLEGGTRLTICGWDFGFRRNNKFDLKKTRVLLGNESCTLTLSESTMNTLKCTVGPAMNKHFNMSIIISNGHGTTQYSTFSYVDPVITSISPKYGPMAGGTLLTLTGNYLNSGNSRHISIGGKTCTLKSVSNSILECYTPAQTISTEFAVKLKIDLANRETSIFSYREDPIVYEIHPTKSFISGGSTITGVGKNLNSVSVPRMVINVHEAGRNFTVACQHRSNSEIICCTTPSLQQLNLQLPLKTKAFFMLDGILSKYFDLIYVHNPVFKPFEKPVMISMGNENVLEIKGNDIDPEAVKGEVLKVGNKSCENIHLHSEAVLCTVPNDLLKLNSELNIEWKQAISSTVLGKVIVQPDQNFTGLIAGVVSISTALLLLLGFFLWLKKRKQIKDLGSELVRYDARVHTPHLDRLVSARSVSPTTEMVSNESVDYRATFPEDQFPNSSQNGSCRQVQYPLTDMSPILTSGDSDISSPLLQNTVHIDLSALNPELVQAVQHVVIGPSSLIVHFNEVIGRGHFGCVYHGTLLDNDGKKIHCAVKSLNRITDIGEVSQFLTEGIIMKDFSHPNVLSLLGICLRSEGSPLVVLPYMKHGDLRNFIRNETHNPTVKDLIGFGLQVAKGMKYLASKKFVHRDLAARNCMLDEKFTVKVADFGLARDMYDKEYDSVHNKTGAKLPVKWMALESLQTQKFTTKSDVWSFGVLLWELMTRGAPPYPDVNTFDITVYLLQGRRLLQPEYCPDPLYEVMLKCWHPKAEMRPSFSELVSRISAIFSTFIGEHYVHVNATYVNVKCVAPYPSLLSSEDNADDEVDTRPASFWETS

STK16 = STK16 (Homo sapiens, UniProt O75716)
Sequence of STK16 (O75716 whole entry): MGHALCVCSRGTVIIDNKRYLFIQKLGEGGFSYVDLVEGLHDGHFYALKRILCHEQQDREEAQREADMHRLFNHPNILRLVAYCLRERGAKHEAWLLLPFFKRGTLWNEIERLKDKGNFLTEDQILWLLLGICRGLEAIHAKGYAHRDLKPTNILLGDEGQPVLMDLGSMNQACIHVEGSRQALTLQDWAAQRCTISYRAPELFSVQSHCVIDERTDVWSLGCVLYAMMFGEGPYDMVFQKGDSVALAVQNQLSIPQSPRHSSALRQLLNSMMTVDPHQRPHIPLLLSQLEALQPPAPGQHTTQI

[1] = read-out: Talazoparib (BMN 673) / %Ctrl @ 10000nM
[2] = read-out: Olaparib / %Ctrl @ 10000nM
[3] = read-out: Rucaparib / %Ctrl @ 10000nM, binding competition, % of control
[4] = read-out: Niraparib (MK-4827) / %Ctrl @ 10000nM

T1 sequence (Q9NYL2 whole entry): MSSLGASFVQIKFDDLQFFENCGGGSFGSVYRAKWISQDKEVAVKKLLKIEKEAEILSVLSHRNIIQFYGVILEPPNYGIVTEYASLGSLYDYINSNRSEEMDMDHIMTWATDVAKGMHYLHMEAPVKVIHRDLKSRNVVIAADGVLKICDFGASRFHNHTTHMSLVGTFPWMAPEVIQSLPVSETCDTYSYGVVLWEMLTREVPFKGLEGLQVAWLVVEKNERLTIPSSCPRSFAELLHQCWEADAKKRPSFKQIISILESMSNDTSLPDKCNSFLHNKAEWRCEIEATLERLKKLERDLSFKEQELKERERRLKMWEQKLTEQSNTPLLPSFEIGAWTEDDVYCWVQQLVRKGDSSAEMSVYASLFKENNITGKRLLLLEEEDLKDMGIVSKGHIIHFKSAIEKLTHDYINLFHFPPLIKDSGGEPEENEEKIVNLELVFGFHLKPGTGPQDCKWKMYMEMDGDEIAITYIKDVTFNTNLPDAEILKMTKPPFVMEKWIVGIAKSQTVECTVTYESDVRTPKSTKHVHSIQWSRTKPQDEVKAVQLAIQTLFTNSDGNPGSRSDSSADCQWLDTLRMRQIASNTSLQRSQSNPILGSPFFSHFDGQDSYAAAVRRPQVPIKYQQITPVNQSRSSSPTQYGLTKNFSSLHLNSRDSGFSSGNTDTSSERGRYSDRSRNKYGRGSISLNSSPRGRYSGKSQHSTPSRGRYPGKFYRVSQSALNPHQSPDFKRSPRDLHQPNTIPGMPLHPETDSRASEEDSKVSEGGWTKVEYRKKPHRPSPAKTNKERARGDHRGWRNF

## Cn1ncnc1[C@H]1c2n[nH]c(=O)c3cc(F)cc(c23)N[C@@H]1c1ccc(F)cc1 [Talazoparib]
ZAK; [1]
  percent of control binding at 10 µM: 97%
AXL; [1]
  percent of control binding at 10 µM: 100%
PHKG2; [1]
  percent of control binding at 10 µM: 97%
p38-alpha; [1]
  percent of control binding at 10 µM: 83%
FLT3; [1]
  percent of control binding at 10 µM: 94%
MET(Y1235D); [1]
  percent of control binding at 10 µM: 96%
STK16; [1]
  percent of control binding at 10 µM: 90%

## O=C(c1cc(Cc2n[nH]c(=O)c3ccccc23)ccc1F)N1CCN(C(=O)C2CC2)CC1 [Olaparib]
ZAK; [2]
  percent of control binding at 10 µM: 94%
AXL; [2]
  percent of control binding at 10 µM: 100%
PHKG2; [2]
  percent of control binding at 10 µM: 100%
p38-alpha; [2]
  percent of control binding at 10 µM: 100%
FLT3; [2]
  percent of control binding at 10 µM: 100%
MET(Y1235D); [2]
  percent of control binding at 10 µM: 82%
STK16; [2]
  percent of control binding at 10 µM: 83%

## CNCc1ccc(-c2[nH]c3cc(F)cc4c3c2CCNC4=O)cc1 [Rucaparib]
ZAK; [3]
  percent of control binding at 10 µM: 93%
AXL; [3]
  percent of control binding at 10 µM: 82%
PHKG2; [3]
  percent of control binding at 10 µM: 70%
p38-alpha; [3]
  percent of control binding at 10 µM: 90%
FLT3; binding competition, % of control
  Rucaparib / %Ctrl @ 10000nM: 98%
MET(Y1235D); [3]
  percent of control binding at 10 µM: 92%
STK16; [3]
  percent of control binding at 10 µM: 100%

## NC(=O)c1cccc2cn(-c3ccc([C@@H]4CCCNC4)cc3)nc12 [Niraparib]
ZAK; [4]
  percent of control binding at 10 µM: 88%
AXL; [4]
  percent of control binding at 10 µM: 59%
PHKG2; [4]
  percent of control binding at 10 µM: 87%
p38-alpha; [4]
  percent of control binding at 10 µM: 95%
FLT3; [4]
  percent of control binding at 10 µM: 70%
MET(Y1235D); [4]
  percent of control binding at 10 µM: 75%
STK16; [4]
  percent of control binding at 10 µM: 93%

Source: article PMC7026418, “The kinase polypharmacology landscape of clinical PARP inhibitors” (Scientific Reports, 2020)
